We go through four molecules from BindingDB's records for patent US11845767 (Rijksuniversiteit Groningen, 2023).

The structures appear in SMILES notation.

One experiment concerns the target T1, Arginase-1 (Homo sapiens, UniProt P05089).
T1 sequence (P05089 whole entry): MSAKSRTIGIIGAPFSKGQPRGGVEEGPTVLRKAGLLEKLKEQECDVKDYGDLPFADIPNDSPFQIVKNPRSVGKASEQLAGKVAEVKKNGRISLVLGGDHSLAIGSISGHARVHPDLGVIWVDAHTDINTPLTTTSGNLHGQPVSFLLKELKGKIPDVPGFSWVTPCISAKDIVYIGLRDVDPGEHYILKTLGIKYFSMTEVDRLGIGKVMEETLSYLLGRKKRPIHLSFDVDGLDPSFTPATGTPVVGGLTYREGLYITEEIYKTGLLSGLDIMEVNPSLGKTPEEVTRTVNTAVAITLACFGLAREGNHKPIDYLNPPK
Put plainly: Inhibition of Arginase. As for the experimental part: (§1) Inhibition of arginase I (ARG I) and arginase II (ARGG II) novel compounds is followed spectrophotometrically at 530 nm. The compound to be tested is dissolved in H2O and prepared 100 mM stock solution. 10 μl of the stock solution is diluted in 90 μl of the assay buffer that comprises 0.1M sodium phosphate buffer containing 130 mM NaCl, pH 7.4, to which is added ovalbumin (OVA) at a concentration of 1 mg/mi. Solutions of arginase I and II are prepared in 100 mM sodium phosphate buffer, pH 7.4 containing 1 mg/ml OVA to give an arginase stock solution at a final concentration of 100 ng/ml. To each well of a 96-well microtiter plate is add 40 μl of enzyme, 10 μl of an inventive compound and 10 μl of enzyme substrate (L-arginine+manganese sulfate). For wells that are used as positive controls, only the enzyme and its substrate are added, while wells used as negative controls contain only manganese sulfate. After incubating the microtiter plate at 37° C. for 60 minutes, 150 μl of a urea reagent obtained by combining equal proportions (1:1) of reagents A and B is added to each well of the microtiter plate to stop the reaction. The urea reagent is made just before use by combining Reagent A (10 mM o-phthaldialdehyde, and 0.4% polyoxyethylene (23) lauryl ether (w/v) in 1.8 M sulfuric acid) with Reagent B (1.3 mM […], 0.4% polyoxyethylene (23) lauryl ether (w/v), 130 mM boric acid in 3.6 M sulfuric acid). After quenching the reaction mixture, the microtiter plate is allowed to stand for an additional 10 minutes at room temperature to allow color development. T

In experiment [1] the target is T2, Arginase-2, mitochondrial (Homo sapiens, UniProt P78540).
T2 sequence (P78540 whole entry): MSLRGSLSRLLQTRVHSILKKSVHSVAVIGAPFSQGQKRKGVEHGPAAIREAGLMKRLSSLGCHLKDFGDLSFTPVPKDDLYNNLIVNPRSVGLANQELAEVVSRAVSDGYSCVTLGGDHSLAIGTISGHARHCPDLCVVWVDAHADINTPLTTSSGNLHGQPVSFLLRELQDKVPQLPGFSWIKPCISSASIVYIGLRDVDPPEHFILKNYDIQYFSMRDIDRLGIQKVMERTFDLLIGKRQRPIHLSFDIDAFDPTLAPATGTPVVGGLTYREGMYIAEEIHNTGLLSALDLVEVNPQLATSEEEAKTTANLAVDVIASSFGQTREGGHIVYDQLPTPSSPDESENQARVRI
Put plainly: Inhibition of Arginase. As for the experimental part:
as §1

The molecule `CCCCNC(=O)Cn1nnnc1C(N)CCCCB(O)O` (stereo not given) [US11845767, Example 271] came in with an IC50 on Arginase-1 of 14 nM. Same read-out and setting: under `NC(CCCCB(O)O)c1nnnn1CC(=O)N1CCOCC1` (stereo not given) [US11845767, Example 274] stands 340 nM. The molecule `NC(CCCCB(O)O)c1nnnn1CCc1ccc(Br)cc1` (stereo not given) [US11845767, Example 313] had an IC50 against Arginase-1 of under 101 nM. As for `NC(CCCCB(O)O)c1nnnn1CC(=O)NCc1ccc(Cl)cc1F` (stereo not given) [US11845767, Example 318], the IC50 was found to be 15.5 nM at Arginase-1 and 18.6 nM in experiment [1].

For orientation: IC50 means the point on the concentration scale where inhibition reaches its midpoint. The low end stands for greater potency, the high end for weaker potency.
